According to PMC12333015, “Profiling the Impact of mGlu7/Elfn1 Protein Interactions on the Pharmacology of mGlu7 Allosteric Modulators” (ACS Chemical Neuroscience, 2025):

Tested on: pyramidal cell to SST-IN synapses in the prefrontal cortex
Experiment: Ex vivo whole-cell electrophysiology, eEPSCs recorded from SST-INs in prefrontal cortex slices
Format: cell-based, mouse
Settings: 30 μM L-AP4 alone, bath applied
Description: Shown in Figure A are representative traces of eEPSCs recorded from SST-INs in response to 5-pulse stimulation with baseline in black, illustrating the characteristic facilitating nature of pyramidal cell (PYR) to SST-IN synapses.
Transgenic mice (both male and female) expressing tdTomato fluorescent protein in SST-INs were used in this study. They were generated by crossing female homozygous SST-Cre (Sst^tm2.1(cre)Zjh/J, Stock #: 013044, Jackson Laboratories) with male homozygous Ai9 mice (B6;Cg-Gt(Rosa)-26Sor^tm9(CAG‑tdTomato)Hze/J, Stock #: 007909, Jackson Laboratories). All animals were group housed with food and water available ad libitum, kept under a 12 h light/dark cycle with lights on from 6:00 AM to 6:00 PM, and were used for experiments during the light phase. All of the experimental procedures were approved by the Vanderbilt University Animal Care and Use committee and followed the guidelines set forth by the Guide for the Care and Use of Laboratory Animals. […] Whole cell recordings were made from visually identified, fluorescence-labeled SST-INs in layer V of PFC slices under the upright microscope. […] Excitatory postsynaptic currents (EPSCs) were recorded from layer V SST-INs at a holding potential of −80 mV and evoked by electrical stimulation (100 μs duration, applied every 15 s) through a concentric bipolar stimulating electrode placed around 100–150 μm from the recorded cell. The holding potential of −80 mV under voltage clamp is closed to the calculated reversal potential of Cl^– and thus the EPSCs recorded in the present studies had minimal GABAA-mediated component. Electrical stimulation applied near the recorded cell in the cortex presumably activates the local neurons preferentially. […] Data were analyzed using Clampfit 10 (Molecular Devices), Excel (Microsoft), and Prism (GraphPad Software), and presented as mean ± SEM. […]

## N[C@@H](CCP(=O)(O)O)C(=O)O [L-AP4, L-2-amino-4-phosphonobutyric acid, reference compound]
  effect on eEPSC amplitude: reduced eEPSC amplitude
